Results reported in publication PMC6383929, “Design, antimicrobial activity and mechanism of action of Arg-rich ultra-short cationic lipopeptides” (PLoS ONE, 2019).
In brackets after ≈: the same amount, converted by molar mass. Where a SMILES comes first, the peptide text is derived from it. The star is where a group is joined. Lauroyl = CCCCCCCCCCCC(=O)*

Experiments:
[1] = RP-HPLC retention time (hydrophobicity); type: physicochemical; settings: stated to reliably reflect the hydrophobicity in aqueous solution, assessed and provided by GenScript
Experimental: GenScript (Piscataway, NJ, USA) carried out the custom synthesis of USCLs by using high efficient solid phase peptide synthesis. The fatty acid was conjugated to the N-terminus of the peptide using the same procedure followed to attach protected amino acids to the growing peptide chain for synthesis. The purity (>90%), sequence and molecular weight of USCLs were assessed and provided by GenScript using RP-HPLC and ESI-MS. USCLs were dissolved in sterile water or DMSO at 10 mg/mL, according to manufacturer's indications.

[2] = tested on: S. typhimurium ATCC 14028; type: cell-based, Salmonella typhimurium; settings: ATCC 14028, 24 h
Excerpt: (§1) Bacteria used in this study were Escherichia coli ATCC 25922 and O18K1H7, Staphylococcus aureus ATCC 25923 and ATCC 29213, Pseudomonas aeruginosa ATCC 27853, Staphylococcus epidermidis ATCC 12228, Enterococcus faecalis ATCC 29212, Bacillus subtilis DSM 4181, Listeria monocytogenes DSM 20600, Salmonella typhimurium ATCC 14028, Acinetobacter baumannii ATCC 19606 and 17978, Klebsiella pneumoniae ATCC 13883 and 700603, Stenotrophomonas maltophilia ATCC 13637 and Burkholderia cenocepacia J2315. In addition to reference strains, a clinical isolate of E. faecalis vancomycin-resistant (VREF, strain M), and three clinical isolates of S. aureus methicillin-resistant (MRSA, strains E, G and 11), kindly provided by Dr. Lucilla Dolzani, were used. All MRSA strains are resistant to GEN, IPM, OXA, PEN, CIP and CEF; the S. aureus E strain is also resistant to CLI and ERY. VREF strain is resistant to AMK, ATM, GEN, NET, PEN, TEC, TET, TOB and VAN.
(§2) For the assays, overnight bacterial cultures were diluted 1:30 in fresh Mueller-Hinton Broth (MHB, Difco) and incubated at 37°C with shaking for approximately 2h.
(§3) The antimicrobial activity of USCLs was determined by the Minimum Inhibitory Concentration (MIC) assay, according to the guidelines of CLSI (Clinical & Laboratory Standards Institute) and described in [30, 31]. Briefly, the assays were performed in 96-well microplates in appropriate broth (MHB or SAB). […] For bacteria, a mid-log phase bacterial suspension at 2.5 × 10^5 CFU/mL in MHB was used, and the microplates incubated at 37°C for 24h. The fungal suspension in SAB broth was used at a final concentration of 5 × 10^4 cells/mL. Microplates were then incubated at 30°C for 48h. The MIC value was taken as the lowest concentration of USCLs resulting in the complete inhibition of visible bacterial or fungal growth after appropriate incubation time. Results derive from at least three independent experiments carried out in duplicate.

[3] = tested on: S. maltophilia ATCC 13637; type: cell-based, Stenotrophomonas maltophilia; settings: ATCC 13637, 48 h
Excerpt: as §1, §2
as §3, with “For bacteria, a mid-log phase bacterial suspension at 2.5 × 10^5 CFU/mL in MHB was used, and the microplates incubated at 37°C for 24h.” left out

E. coli O18K1H7 = type: cell-based, Escherichia coli; settings: O18K1H7, 24 h
Excerpt: as §1, §2, §3

E. coli ATCC 25922 = type: cell-based, Escherichia coli; settings: ATCC 25922, 24 h
Excerpt: as §1, §2, §3

[4] = tested on: E. faecalis M (VREF clinical isolate); type: cell-based, Enterococcus faecalis; settings: M (VREF clinical isolate, 24 h)
Excerpt: as §1, §2, §3

E. faecalis ATCC 29212 = type: cell-based, Enterococcus faecalis; settings: ATCC 29212, 24 h
Excerpt: as §1, §2, §3

[5] = tested on: K. pneumoniae ATCC 700603; type: cell-based, Klebsiella pneumoniae; settings: ATCC 700603, 24 h
Excerpt: as §1, §2, §3

K. pneumoniae ATCC 13883 = type: cell-based, Klebsiella pneumoniae; settings: ATCC 13883, 24 h
Excerpt: as §1, §2, §3

B. subtilis DSM 4181 = type: cell-based, Bacillus subtilis; settings: DSM 4181, 24 h
Excerpt: as §1, §2, §3

P. aeruginosa ATCC 27853 = type: cell-based, Pseudomonas aeruginosa; settings: ATCC 27853, 24 h
Excerpt: as §1, §2, §3

C. albicans SC 5314 = type: cell-based, Candida albicans; settings: SC 5314, 48 h
Experimental: (§4) Fungal strains used were Candida albicans ATCC 90029 and SC5314. Fungi were grown on Sabouraud dextrose (SAB, Difco) agar plates at 30°C for 48h. The initial fungal inoculum was prepared by picking and suspending five colonies in 5 mL of sterile PBS.
as §3

C. albicans ATCC 90029 = type: cell-based, Candida albicans; settings: ATCC 90029, 48 h
Experimental: as §4, §3

[6] = tested on: S. aureus 11 (MRSA clinical isolate); type: cell-based, Staphylococcus aureus; settings: 11 ( clinical isolate, 24 h)
Excerpt: as §1, §2, §3

[7] = tested on: S. aureus E (MRSA clinical isolate); type: cell-based, Staphylococcus aureus; settings: E ( clinical isolate, 24 h)
Excerpt: as §1, §2, §3

[8] = tested on: S. aureus G (MRSA clinical isolate); type: cell-based, Staphylococcus aureus; settings: G ( clinical isolate, 24 h)
Excerpt: as §1, §2, §3

S. aureus ATCC 25923 = type: cell-based, Staphylococcus aureus; settings: ATCC 25923, 24 h
Excerpt: as §1, §2, §3

[9] = tested on: L. monocytogenes DSM 20600; type: cell-based, Listeria monocytogenes; settings: DSM 20600, 24 h
Excerpt: as §1, §2, §3

B. cenocepacia J2315 = type: cell-based, Burkholderia cenocepacia; settings: 48 h
Excerpt: as §1, §2
as §3, with “For bacteria, a mid-log phase bacterial suspension at 2.5 × 10^5 CFU/mL in MHB was used, and the microplates incubated at 37°C for 24h.” left out

A. baumannii ATCC 17978 = type: cell-based, Acinetobacter baumannii; settings: ATCC 17978, 24 h
Excerpt: as §1, §2, §3

S. aureus ATCC 29213 = type: cell-based, Staphylococcus aureus; settings: ATCC 29213, 24 h
Excerpt: as §1, §2, §3

A. baumannii ATCC 19606 = type: cell-based, Acinetobacter baumannii; settings: ATCC 19606, 24 h
Excerpt: as §1, §2, §3

[10] = tested on: S. epidermidis ATCC 12228; type: cell-based, Staphylococcus epidermidis; settings: ATCC 12228, 24 h
Excerpt: as §1, §2
The antimicrobial activity of USCLs was determined by the Minimum Inhibitory Concentration (MIC) assay, according to the guidelines of CLSI (Clinical & Laboratory Standards Institute) and described in [30, 31]. […]

Row | Retention time [1] | MIC [2] | MIC [3] | MIC (E. coli O18K1H7) | MIC [4] | MIC (E. faecalis ATCC 29212) | MIC [5] | MIC (K. pneumoniae ATCC 13883) | MIC (B. subtilis DSM 4181) | MIC (C. albicans SC 5314) | MIC (C. albicans ATCC 90029) | MIC [6] | MIC [7] | MIC [8] | MIC (S. aureus ATCC 25923) | MIC [9] | MIC (B. cenocepacia J2315) | MIC (A. baumannii ATCC 17978) | MIC (S. aureus ATCC 29213) | MIC (A. baumannii ATCC 19606) | SMILES | also measured
1 | 12.393 min |  | 12.5 µg/mL (≈ 15.1 µM) | 25 µg/mL (≈ 30.2 µM) | 12.5 µg/mL (≈ 15.1 µM) | 6.25 µg/mL (≈ 7.54 µM) | 100 µg/mL (≈ 121 µM) | >100 µg/mL | 3.125 µg/mL (≈ 3.77 µM) | 12.5 µg/mL (≈ 15.1 µM) | 3.125 µg/mL (≈ 3.77 µM) | 6.25 µg/mL (≈ 7.54 µM) | 6.25 µg/mL (≈ 7.54 µM) | 6.25 µg/mL (≈ 7.54 µM) | 6.25 µg/mL (≈ 7.54 µM) | 3.125 µg/mL (≈ 3.77 µM) | 25 µg/mL (≈ 30.2 µM) | 25 µg/mL (≈ 30.2 µM) |  | 25 µg/mL (≈ 30.2 µM) | CCCCCCCCCCCC(=O)N[C@@H](CCCNC(=N)N)C(=O)N[C@@H](CCSC)C(=O)N[C@@H](Cc1c[nH]c2ccccc12)C(=O)N[C@@H](CCCNC(=N)N)C(N)=O [Lp-M, Lau-RMWR-NH2] (Lauroyl-RMWR-NH2) | MIC [10]: 3.125 µg/mL (≈ 3.77 µM)
2 |  | 25 µg/mL (≈ 30.8 µM) |  |  |  |  | 50 µg/mL (≈ 61.6 µM) | 100 µg/mL (≈ 123 µM) |  |  |  |  | 3.125 µg/mL (≈ 3.85 µM) | 3.125 µg/mL (≈ 3.85 µM) |  |  | 12.5 µg/mL (≈ 15.4 µM) | 25 µg/mL (≈ 30.8 µM) | 3.125 µg/mL (≈ 3.85 µM) | 25 µg/mL (≈ 30.8 µM) | CCCCCCCCCCCC(=O)N[C@@H](CCCNC(=N)N)C(=O)N[C@H](C(=O)N[C@@H](Cc1c[nH]c2ccccc12)C(=O)N[C@@H](CCCNC(=N)N)C(N)=O)[C@@H](C)CC [Lp-I] (Lauroyl-RIWR-NH2) | MIC [10]: 3.125 µg/mL (≈ 3.85 µM)

The next lines start with the compound.

Row | SMILES | Retention time [1] | MIC [2] | MIC [3] | MIC (E. coli O18K1H7) | MIC [4] | MIC (E. faecalis ATCC 29212) | MIC [5] | MIC (K. pneumoniae ATCC 13883) | MIC (B. subtilis DSM 4181) | MIC (C. albicans SC 5314) | MIC (C. albicans ATCC 90029) | MIC [6] | MIC [7] | MIC [8] | MIC (S. aureus ATCC 25923) | MIC [9] | MIC (B. cenocepacia J2315) | MIC (A. baumannii ATCC 17978) | MIC (S. aureus ATCC 29213) | MIC (A. baumannii ATCC 19606) | also measured
3 | CCCCCCCCCCCC(=O)N[C@@H](CCCNC(=N)N)C(=O)N[C@@H](CCCNC(=N)N)C(=O)N[C@@H](Cc1ccccc1)C(=O)N[C@@H](Cc1c[nH]c2ccccc12)C(=O)N[C@@H](CCCNC(=N)N)C(=O)N[C@@H](CCCNC(=N)N)C(N)=O [Lp-F^RR, Lau-RRFWRR-NH2] (Lauroyl-RRFWRR-NH2) | 22.087 min | 25 µg/mL (≈ 21.6 µM) | 12.5 µg/mL (≈ 10.8 µM) | 25 µg/mL (≈ 21.6 µM) | 6.25 to 12.5 µg/mL | 6.25 µg/mL (≈ 5.4 µM) | 25 µg/mL (≈ 21.6 µM) | 25 µg/mL (≈ 21.6 µM) | 1.56 µg/mL (≈ 1.35 µM) | 100 µg/mL (≈ 86.4 µM) | 1.56 µg/mL (≈ 1.35 µM) | 3.125 µg/mL (≈ 2.7 µM) | 3.125 µg/mL (≈ 2.7 µM) | 3.125 µg/mL (≈ 2.7 µM) | 3.125 µg/mL (≈ 2.7 µM) | 1.56 µg/mL (≈ 1.35 µM) | 12.5 µg/mL (≈ 10.8 µM) | 25 µg/mL (≈ 21.6 µM) |  |  | MIC (E. coli ATCC 25922): 12.5 µg/mL (≈ 10.8 µM); MIC (P. aeruginosa ATCC 27853): 12.5 µg/mL (≈ 10.8 µM)
4 | CCCCCCCCCCCC(=O)N[C@@H](CCCNC(=N)N)C(=O)N[C@@H](CCCNC(=N)N)C(=O)N[C@H](C(=O)N[C@@H](Cc1c[nH]c2ccccc12)C(N)=O)[C@@H](C)CC [Lau-RRIW, Lau-RRIW-NH2] (Lauroyl-RRIW-NH2) | 20.957 min | 25 µg/mL (≈ 30.8 µM) | 12.5 µg/mL (≈ 15.4 µM) | 12.5 µg/mL (≈ 15.4 µM) | 6.25 µg/mL (≈ 7.71 µM) | 6.25 µg/mL (≈ 7.71 µM) |  |  | 3.125 µg/mL (≈ 3.85 µM) | 12.5 µg/mL (≈ 15.4 µM) | 3.125 µg/mL (≈ 3.85 µM) |  | 3.125 µg/mL (≈ 3.85 µM) | 3.125 µg/mL (≈ 3.85 µM) | 3.125 µg/mL (≈ 3.85 µM) | 3.125 µg/mL (≈ 3.85 µM) | 6.25 µg/mL (≈ 7.71 µM) | 25 µg/mL (≈ 30.8 µM) | 3.125 µg/mL (≈ 3.85 µM) | 12.5 µg/mL (≈ 15.4 µM) | MIC (E. coli ATCC 25922): 12.5 µg/mL (≈ 15.4 µM); MIC (P. aeruginosa ATCC 27853): 12.5 µg/mL (≈ 15.4 µM)
5 | CCCCCCCCCCCC(=O)N[C@@H](CCCNC(=N)N)C(=O)N[C@@H](CCCNC(=N)N)C(=O)N[C@@H](Cc1ccccc1)C(=O)N[C@@H](Cc1c[nH]c2ccccc12)C(N)=O [Lau-RRFW, Lau-RRFW-NH2] (Lauroyl-RRFW-NH2) | 22.609 min |  | 6.25 µg/mL (≈ 7.4 µM) | 12.5 µg/mL (≈ 14.8 µM) |  | 6.25 µg/mL (≈ 7.4 µM) | 25 µg/mL (≈ 29.6 µM) | 50 µg/mL (≈ 59.2 µM) |  | 12.5 µg/mL (≈ 14.8 µM) | 3.125 µg/mL (≈ 3.7 µM) | 6.25 µg/mL (≈ 7.4 µM) | 3.125 µg/mL (≈ 3.7 µM) | 6.25 µg/mL (≈ 7.4 µM) | 3.125 µg/mL (≈ 3.7 µM) | 3.125 µg/mL (≈ 3.7 µM) | 12.5 µg/mL (≈ 14.8 µM) | 12.5 µg/mL (≈ 14.8 µM) | 3.125 µg/mL (≈ 3.7 µM) | 12.5 µg/mL (≈ 14.8 µM) | 
